Experiment: Release of diclofenac from the formulation, in vitro, Franz cell, rabbit plasma
Type: in vitro ADME
Experimental: The evaluation of the release kinetics of Diclofenac from the formulation was conducted with a Franz cell, comparing the release of the diclofenac contained in the formulation described in example 1 with an identically formulated composition containing diclofenac sodium (DCFNa) instead of diclofenac acid, at the same percentage.
The Franz cell is an instrument known to the skilled person; briefly, and very simply, it consists of two chambers, the lower one being called the receptor, while the upper one is called the donor. The two cells are separated by a porous membrane and connected to one another; the medium in which the diffusion of the active ingredient in question will be evaluated is loaded into the receptor chamber, and the product to be evaluated is loaded into the donor chamber. The medium flows against the separator membrane, and therefore comes into contact with the product loaded into the donor chamber; the active constituent spreads through the membrane to the receptor chamber, from which aliquots are sampled for testing to determine the extent of release of the active ingredient.
In this specific case, the receptor chamber was loaded with rabbit plasma (10.2 ml); approx. 73 mg of the formulation of Example 1 based on diclofenac acid (DCF/H+), accurately weighed, was placed in the donor chamber, distributed on a cellulose acetate membrane with a porosity (cut-off) of 0.2μ, wetted with rabbit plasma, and an area of 3.46 cm2. When the operating procedures of the Franz cell had been activated, 0.3 ml samples of rabbit serum were taken from the receptor chamber, which was topped up with fresh serum from time to time. The diclofenac is determined by spectrophotometric analysis, calibrating the instrument with rabbit plasma to take account of the effect of the medium on the release of the medicament.
The same procedure was followed to measure the release of diclofenac sodium (DCF/Na) formulated identically to the formulation of Example 1 in qualitative and quantitative terms.

| duration of release (formulation of Example 1) | drug released after approx. 8 hours (formulation of Example 1, approx. 8 hours) | time within which the drug is exhausted (formulated identically to Example 1 (0.8%)) | medicament released in the first 4 hours (formulated identically to Example 1 (0.8%), first 4 hours) | Compound |
| --- | --- | --- | --- | --- |
| at least 48 hours | 60% | – | – | O=C(O)Cc1ccccc1Nc1c(Cl)cccc1Cl [diclofenac acid] |
| – | – | ≤ 24 h | over 90% | O=C(O)Cc1ccccc1Nc1c(Cl)cccc1Cl [diclofenac sodium] |
